Patent US20260137698A1, “CYCLIN-DEPENDENT KINASE 7 INHIBITORS” (JOINT STOCK COMPANY «BIOCAD», priority 2022, published 2026)

Tests used:
CDK7/Cyclin H/MNAT1 = CDK7/Cyclin H/MNAT1 (Homo sapiens, UniProt P50613); assay: Inhibition of CDK7/Cyclin H/MNAT1 kinase activity (ADP-Glo); assay type: biochemical; settings: mean value from several measurements; read-out: IC50 CDK7/Cyclin H/MNAT
Protocol: (§1) Measurements were carried out in a 5 μl reaction volume using a 384-well plate (Corning Inc., order no. 4513). The analyzed substances were titrated from 50 μM in increments of 4 at 11 concentration points in a normal strength kinase buffer A (Thermo Fisher Scientific Inc, cat. no. PV3189) supplemented with DTT (Sigma, orde. no. 646563-10X.5ML) and prepared with water (Panreac, order no. 701074). Kinase was diluted in an analogous buffer, mixed with test compounds in plate wells and preincubated for 10 minutes at 25° C. Following incubation, a mixture of reaction substrate (CDKtide (SignalChem, order no. C06-58) or Histone H1 (SignalChem, order no. H10-54N) or PDKtide (SignalChem, order no. P10-58) and ATP (SignalChem, order no. V915B) prepared on a normal strength kinase buffer A was added. 1% solution of dimethyl sulfoxide (DMSO) (Sigma-Aldrich, order no. D2438) in the reaction volume was used as a negative control. The final concentrations of all reaction components are shown in Table 5. The plate was centrifuged at 400 rcf (Eppendorf, 5804 R) for 1 minute and incubated for 40-60 minutes at 25° C. The amount of ATP consumed in the kinase reaction was then measured using the ADP-Glo™ detection system. Luminescence signal was measured using Spark 20M tablet multifunction reader (Tecan Group Ltd, Switzerland). IC50 value was calculated using Magellan 7.2 (Tecan Group Ltd, Switzerland) by approximating experimental points by four-parameter model with the optimization by Levenberg-Marquardt:
(§2) [formula] • where A is the upper asymptote; D is the lower asymptote; C is IC50, half-maximal inhibitory concentration of kinase, nM; B is the curvature (slope).

CDK2/Cyclin A = CDK2/Cyclin A (Homo sapiens, UniProt P24941); assay: Inhibition of CDK2/Cyclin A kinase activity (ADP-Glo); assay type: biochemical; settings: mean value from several measurements; read-out: IC50 CDK2/Cyclin A
Protocol: as §1, §2

CDK9/Cyclin K = CDK9/Cyclin K (Homo sapiens, UniProt P50750); assay: Inhibition of CDK9/Cyclin K kinase activity (ADP-Glo); assay type: biochemical; settings: mean value from several measurements; read-out: IC50 CDK9/Cyclin K
Sequence of CDK9/Cyclin K (P50750 whole entry): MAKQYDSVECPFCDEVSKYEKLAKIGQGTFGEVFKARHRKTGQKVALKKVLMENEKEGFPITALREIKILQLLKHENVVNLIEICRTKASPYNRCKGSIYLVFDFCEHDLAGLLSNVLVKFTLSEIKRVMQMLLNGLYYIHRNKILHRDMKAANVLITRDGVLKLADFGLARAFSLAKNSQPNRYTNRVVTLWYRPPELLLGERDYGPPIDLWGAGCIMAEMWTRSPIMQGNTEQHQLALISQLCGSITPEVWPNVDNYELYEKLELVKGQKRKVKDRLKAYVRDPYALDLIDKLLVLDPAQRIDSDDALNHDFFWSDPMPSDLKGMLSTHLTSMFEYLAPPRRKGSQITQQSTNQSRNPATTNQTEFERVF
Sequence of CDK9/Cyclin K (O75909 whole entry partner): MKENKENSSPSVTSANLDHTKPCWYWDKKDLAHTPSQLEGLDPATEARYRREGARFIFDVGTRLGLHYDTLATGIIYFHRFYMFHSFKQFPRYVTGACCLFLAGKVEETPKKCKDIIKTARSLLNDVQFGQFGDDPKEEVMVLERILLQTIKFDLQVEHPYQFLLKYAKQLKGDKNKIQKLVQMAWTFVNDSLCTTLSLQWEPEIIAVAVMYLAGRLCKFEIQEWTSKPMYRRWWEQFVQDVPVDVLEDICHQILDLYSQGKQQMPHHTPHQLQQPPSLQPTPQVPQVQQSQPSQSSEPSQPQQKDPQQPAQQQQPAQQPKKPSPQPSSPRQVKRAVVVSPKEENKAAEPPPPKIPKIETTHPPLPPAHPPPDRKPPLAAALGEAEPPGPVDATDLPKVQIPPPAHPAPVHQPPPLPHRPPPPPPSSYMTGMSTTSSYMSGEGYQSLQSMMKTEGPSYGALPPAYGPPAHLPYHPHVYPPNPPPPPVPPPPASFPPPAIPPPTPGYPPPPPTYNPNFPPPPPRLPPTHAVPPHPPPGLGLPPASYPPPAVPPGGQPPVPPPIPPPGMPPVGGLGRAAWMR
Protocol: as §1, §2

[1] = test system: MDA-MB-468 (triple negative breast cancer); assay: Antiproliferative assay on MDA-MB-468 cells (AlamarBlue, 96 h); assay type: cell-based; settings: Homo sapiens, mean value from several measurements
Protocol: The antiproliferative activity of CDK7 inhibitors according to the present invention was evaluated in a cell test using continuous cell cultures: MDA-MB-468 (triple negative breast cancer, ATCC® HTB-132™) and NCl-H82 (small cell lung cancer, ATCC® HTB-175™) using a viable AlamarBlue dye (Thermo Fisher Scientific Inc, order no. DAL1100). The cells were grown in DMEM (PanEco, order no. C330π) and RPMI-1640 (PanEco, order no. C330π), respectively. The basal growth medium was enriched with L-glutamine at a concentration of 2 mM (PanEco, order no. Φ032) and 10% fetal bovine serum (Gibco, order no. 16140-071). The night before measurement, MDA-MB-468 adherent cells were detached from plastic with a solution of trypsin-EDTA (PanEco, order no. Π039π), the solution was then inactivated by a DMEM complete medium, centrifuged at 1000 RPM (Eppendorf, 5804 R), a suspension of cells was prepared in a DMEM complete medium, introduced into 96-well culture plates (Corning Inc, order no. 3599) at 8×10^3 cells in 100 μl of medium per well. The next day, test compounds were dissolved in DMSO and diluted with a DMEM complete medium to a final concentration ranging from 50 μM to 10 pM. Diluted compounds in a volume of 50 μl were introduced into the plate wells with cells in triplicates (the final concentration of DMSO was no more than 1%) and incubated at 37° C. in an incubator with 5% CO2 for 96 hours. NCl-H82 suspension cell line was prepared on the day of the analysis. 10×10^3 cells in 100 μl of an RPMI-1640 complete medium were added to each well of a 96-well plate. The procedure for sample dilution is as described above. Cells with test compounds were incubated at 37° C. in an incubator with 5% CO2 for 120 hours. Following incubation, […] of AlamarBlue reagent (Thermo Fisher Scientific Inc., order no. DAL1100) was added to the wells, the contents of the plates were stirred in an orbital shaker (Biosan, Latvia), then further incubated for 5.5-6 hours at 37° C. in an incubator with 5% CO2. The number of viable cells was detected using the Infinite M200Pro microplate spectrophotometer (Tecan Group Ltd, Switzerland) by way of measuring a fluorescent signal at an excitation wavelength (λEx) of 540 nm and an emission wavelength (λEm) of 590 nm.
IC50 value was calculated using the Magellan software (Tecan Group Ltd, Switzerland) by approximating experimental points by four-parameter model with the optimization by Levenberg-Marquardt: […]

[2] = General cytotoxicity on primary differentiated HepaRG cells (72 h); assay type: cell-based; settings: human, general toxicity, mean value from several measurements
Excerpt: General cytotoxicity of CDK7 inhibitors according to the present invention was investigated using primary differentiated HepaRG cells (Biopredic Int, order no. HPR101). A week before the measurement, the cells were thawed and maintained in Basal hepatic cell medium (Biopredic Int, order no. MIL700079) supplemented with HepaRG maintenance/metabolism medium supplement with antibiotics (Biopredic Int, order no. ADD620C). The medium in vials with cells was changed every 2-3 days. The night before the test, the cells were plated in wells of 96-well plates (Corning Inc., order no. 3599) at 25×10^3 cells in 100 μl of medium per well. The next day, test compounds were introduced into plate wells with cells, untitrated at a concentration ranging from 200 μM to 0.2 nM, and incubated for 72 hours. Cell viability was assessed as described above.

Sequence of CDK7/Cyclin H/MNAT1 (P50613 whole entry): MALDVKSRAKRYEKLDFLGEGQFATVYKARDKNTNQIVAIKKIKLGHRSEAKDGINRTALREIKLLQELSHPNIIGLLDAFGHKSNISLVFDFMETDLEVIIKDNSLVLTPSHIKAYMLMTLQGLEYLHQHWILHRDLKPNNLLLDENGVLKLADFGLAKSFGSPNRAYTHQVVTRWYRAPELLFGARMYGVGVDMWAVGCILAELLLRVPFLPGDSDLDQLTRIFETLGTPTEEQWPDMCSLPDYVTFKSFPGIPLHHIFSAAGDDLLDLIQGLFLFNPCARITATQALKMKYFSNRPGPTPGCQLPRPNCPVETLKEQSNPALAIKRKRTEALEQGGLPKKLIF
Sequence of CDK7/Cyclin H/MNAT1 (P51946 whole entry partner): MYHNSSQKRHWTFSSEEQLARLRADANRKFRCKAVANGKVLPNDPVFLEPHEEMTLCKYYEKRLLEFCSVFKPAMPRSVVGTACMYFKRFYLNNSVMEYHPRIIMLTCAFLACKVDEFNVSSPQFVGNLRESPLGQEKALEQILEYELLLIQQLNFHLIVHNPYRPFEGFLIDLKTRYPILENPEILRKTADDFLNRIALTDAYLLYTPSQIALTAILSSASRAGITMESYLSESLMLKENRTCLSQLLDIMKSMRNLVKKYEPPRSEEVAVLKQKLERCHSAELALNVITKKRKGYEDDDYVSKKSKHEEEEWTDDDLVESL
Sequence of CDK7/Cyclin H/MNAT1 (P51948 whole entry partner): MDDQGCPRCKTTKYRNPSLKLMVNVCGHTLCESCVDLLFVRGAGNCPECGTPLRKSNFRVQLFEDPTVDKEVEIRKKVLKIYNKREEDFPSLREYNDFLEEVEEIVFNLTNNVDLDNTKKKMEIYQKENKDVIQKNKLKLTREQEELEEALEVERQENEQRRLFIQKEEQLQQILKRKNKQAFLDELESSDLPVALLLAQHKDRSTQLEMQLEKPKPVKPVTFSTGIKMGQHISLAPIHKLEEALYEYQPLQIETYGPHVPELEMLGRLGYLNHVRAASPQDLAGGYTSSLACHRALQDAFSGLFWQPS

| Compound | IC50 (CDK7/Cyclin H/MNAT1) [nM] | IC50 (CDK2/Cyclin A) [nM] | IC50 (CDK9/Cyclin K) [nM] | IC50 [1] [nM] | CC50 at 72 h [2] [nM] |
| --- | --- | --- | --- | --- | --- |
| CN1CCN(C(=O)c2cc(-c3nc(N[C@H]4CCCNC4)ncc3C(F)(F)F)c[nH]2)CC1 [CDK7_539, 4-[5-(4-methylpiperazine-1-carbonyl)-1H-pyrrol-3-yl]-N-[(3S)-piperidin-3-yl]-5-(trifluoromethyl) pyrimidin-2-amine] | 5 to 50 | > 200 | 50 to 200 | 100 to 1000 | > 2000 |
| O=C(Nc1ncc[nH]1)c1cc(-c2nc(N[C@H]3CCCNC3)ncc2C(F)(F)F)c[nH]1 [CDK7_833, N-(1H-imidazol-2-yl)-4-(2-{[(3S)-piperidin-3-yl]amino}-5-(trifluoromethyl)pyrimidin-4-yl)-1H-pyrrole-2-carboxamide] | 5 to 50 | > 200 | 50 to 200 | 100 to 1000 | 500 to 2000 |
| O=C(Nc1nccs1)c1cc(-c2nc(N[C@H]3CCCNC3)ncc2C(F)(F)F)c[nH]1 [CDK7_834, 4-(2-{[(3S)-piperidin-3-yl]amino}-5-(trifluoromethyl)pyrimidin-4-yl)-1N-(1,3-thiazol-2-yl)-1H-pyrrole-2-carboxamide] | 5 to 50 | > 200 | 5 to 50 | 10 to 100 | 100 to 500 |
| O=C(Nc1ccncc1)c1cc(-c2nc(N[C@H]3CCCNC3)ncc2C(F)(F)F)c[nH]1 [CDK7_836, 4-(2-{[(3S)-piperidin-3-yl]amino}-5-(trifluoromethyl)pyrimidin-4-yl)-N-(pyridin-4-yl)-1H-pyrrole-2-carboxamide] | 5 to 50 | > 200 | 50 to 200 | 100 to 1000 | 500 to 2000 |
| N#Cc1ccc(NC(=O)c2cc(-c3nc(N[C@H]4CCCNC4)ncc3C(F)(F)F)c[nH]2)cc1 [CDK7_837, N-(4-cyanophenyl)-4-(2-{[(3S)-piperidin-3-yl]amino}-5-(trifluoromethyl)pyrimidin-4-yl)-1H-pyrrole-2-carboxamide] | 50 to 200 | > 200 | > 200 | 100 to 1000 | 500 to 2000 |
| CNC(=O)c1cc(-c2nc(N[C@H]3CCCNC3)ncc2C(F)(F)F)c[nH]1 [CDK7_846, N-methyl-4-(2-{[(3S)-piperidin-3-yl]amino}-5-(trifluoromethyl)pyrimidin-4-yl)-1H-pyrrole-2-carboxamide] | 5 to 50 | > 200 | 5 to 50 | 10 to 100 | 500 to 2000 |
| O=C(NCC(F)(F)F)c1cc(-c2nc(N[C@H]3CCCNC3)ncc2C(F)(F)F)c[nH]1 [CDK7_847, 4-(2-{[(3S)-piperidin-3-yl]amino}-5-(trifluoromethyl)pyrimidin-4-yl)-N-(2,2,2-trifluoroethyl)-1H-pyrrole-2-carboxamide] | 5 to 50 | > 200 | 5 to 50 | 10 to 100 | 100 to 500 |
| CS(=O)(=O)CCNC(=O)c1cc(-c2nc(N[C@H]3CCCNC3)ncc2C(F)(F)F)c[nH]1 [CDK7_848, N-(2-methanesulfon-ylethyl)-4-(2-{[(3S)-piperidin-3-yl]amino}-5-(trifluoromethyl)pyrimidin-4-yl)-1H-pyrrole-2-carboxamide] | 5 to 50 | > 200 | 5 to 50 | > 1000 | > 2000 |
| O=C(c1cc(-c2nc(N[C@H]3CCCNC3)ncc2C(F)(F)F)c[nH]1)N1CCOCC1 [CDK7_849, 4-[5-(morpholine-4-carbonyl)-1H-pyrrol-3-yl]-N-[(3S)-piperidin-3-yl]-5-(trifluoromethyl) pyrimidin-2-amine] | < 5 | > 200 | 50 to 200 | 10 to 100 | 500 to 2000 |
| O=C(NC1CCOCC1)c1cc(-c2nc(N[C@H]3CCCNC3)ncc2C(F)(F)F)c[nH]1 [CDK7_850, N-(oxan-4-yl)-4-(2-{[(3S)-piperidin-3-yl]amino}-5-(trifluoromethyl)pyrimidin-4-yl)-1H-pyrrole-2-carboxamide] | 5 to 50 | > 200 | 50 to 200 | 100 to 1000 | > 2000 |
